From patent US20070179085A1, “MODULATION OF RHAMM-CAVEOLIN/LIPID RAFT INTERACTIONS TO AFFECT DEVELOPMENT, RESPONSES TO TISSUE INJURY, ANGIOGENESIS, TUMORIGENESIS, METASTASIS AND GROWTH FACTOR/CYTOKINE RESPONSES” (priority 2005, published 2007)

Columns and labels:
alveolar macrophages = experiment: Timelapse cinemicrography of macrophage motility; type: cell-based, rat; conditions: macrophages from bleomycin treated animals, 4 days
Protocol: Freshly isolated cells from bronchoalveolar lavage of saline or bleomycin-treated animals were monitored for their motility using a Nikon TE-300 inverted microscope (Nikon Corp., Tokyo, Japan) to which a video camera (Hamamatsu CCD, Inc., Hamamatsu City, Japan) was attached. Cell locomotion of at least 20 cells per animal was determined using Metamorph (Universal Imaging Corp., Downingtown, Pa.). Cells were plated and maintained at 37° C. and followed for 2 hours with mean velocities calculated every 10 minutes. The effect of anti-RHAMM antibody was examined by adding 5 μg/ml of antibody per plate per treatment 15 minutes before measurement of motility. Non-immune IgG was used as a control. Each experiment was repeated at least three times.

male Sprague-Dawley rats = experiment: Intratracheal bleomycin lung injury: macrophage accumulation (ED1) and lung architecture; type: in vivo, rat
Source text: The Institutional Animal Care and Utilization Committees at both The Childrenls Hospital of Philadelphia and The University of Pennsylvania School of Medicine approved all animal care procedures. Six-week old (200-250 grams) male Sprague-Dawley rats (Charles River Breeding Laboratories, N. Wilmington, Mass.) were housed in the Animal Care Facility of The Children's Hospital of Philadelphia under standard conditions with free access to food and water. Animals were anesthetized with ketamine:xylazine:atropine (16:8:0.01 mg/kg), and the trachea was visualized through a vertical incision in the neck. Using an insulin syringe, 250 μl of either LPS-free saline or 8 units/kg bleomycin sulfate (Bristol Myers Squibb, Princeton, N.J.) in 250 μl of saline was injected into the trachea. The incision was closed with surgical clips, and animals were immediately injected intraperitoneally with either 0.5 mg of anti-RHAMM antibody (R36) or non-immune IgG. Antibody treatment was continued with daily injections of 0.5 mg of either R36 or IgG for either three or six days. At least three animals were examined for each condition, including one set that remained unmanipulated throughout.
Animals were sacrificed on days 4 or 7 after injury. Bronchoalveolar lavage (BAL) was obtained (36 ml/kg, total lung capacity) and immediately centrifuged at 500 g for 10 minutes to remove all cells and cellular debris. Approximately 80-90% of lavage was routinely recovered. The cellular pellet and the supernatant were separated and frozen at −70° C. until further analysis. […]
Macrophage accumulation was quantified by immunofluorescent staining with the rat macrophage specific marker ED1 (Serotec, Raleigh, N.C.). Endogenous fluorescence was blocked with separate exposure to sodium borohydrate (1 g/10 ml PBS, 3 minutes×2) and 1 M glycine in PBS for 30 minutes. […] Three blinded, independent observers counted ED 1 positive cells per high power field to quantify macrophage accumulation in at least three lung sections from each animal. […]

bleomycin sulfate
increase in motility of alveolar macrophages (alveolar macrophages): 5 fold | increase in macrophage number (male Sprague-Dawley rats; IT bleomycin, ED1 positive cells per hpf): 3 fold | macrophage number (ED1 positive cells) (male Sprague-Dawley rats; lung sections after IT bleomycin 8 units/kg, R36 0.5 mg ip daily): 28.4±4.7 cells per hpf | lung architecture at seven days (male Sprague-Dawley rats; tissue sections, bleomycin-injured rats): influx of inflammatory cells with thickening of alveolar septae and early fibrosis
